Reference: patent publication US12195427B2, “MASP-2 inhibitors and methods of use” (priority 2018, dated 2025)

Biological target: MASP-2 CCP2-SP (Homo sapiens (Human), UniProt O00187)
Test: MASP-2 co-crystallization, X-ray crystallography and structure analysis (H-bonds, van der Waals contacts);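 for Ligand-pharmacophore element distance, pharmacophore element C2: distance from averaged pharmacophore element to bound ligand; missing value means element absent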;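 for Ligand-pharmacophore element distance, pharmacophore element C3: distance from averaged pharmacophore element to bound ligand; missing value means element absent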;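 for Ligand-pharmacophore element distance, pharmacophore element C4: distance from averaged pharmacophore element to bound ligand; missing value means element absent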;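 for Ligand-pharmacophore element distance, pharmacophore element C5: distance from averaged pharmacophore element to bound ligand; missing value means element absent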
Set-up: van der Waals contact distance, MASP-2 HIS 483 atom CD2 / van der Waals contact distance, MASP-2 HIS 483 atom NE2 / van der Waals contact distance, SER 654 C to compound atom / van der Waals contact distance, SER 654 O to compound atom / van der Waals contact distance, TRP 655 C to compound atom / van der Waals contact distance, MASP-2 GLY 528 atom CA / van der Waals contact distance TRP 655 atom CZ3 / van der Waals contact distance TRP 655 atom N / van der Waals contact distance TRP 655 atom CE3 / van der Waals contact distance GLY 656 atom C / van der Waals contact distance GLY 656 atom CA / van der Waals contact distance GLY 656 atom O / van der Waals contact distance, MASP-2 TYR 607 atom CD1 / van der Waals contact distance, MASP-2 PRO 606 atom O / d(C3,CA1) / d(CA1,N1)2 / d(H4,O1) / d(H4,O2) / d(O1,O2) / d(CA1,O2) / d(CA6,O1) / d(CA6,O2) / d(CA1,C5) / d(O2,H3) / d(N2,C2) / d(CA5,N2) / d(N2,C4) / d(N2,C6) / d(N2,CA3) / d(N2,O3) / d(O4,H2): unit not given beside the values
Conditions: for Ligand-pharmacophore element distance, pharmacophore element C2 / Ligand-pharmacophore element distance, pharmacophore element C3 / Ligand-pharmacophore element distance, pharmacophore element C4 / Ligand-pharmacophore element distance, pharmacophore element C5 / Ligand-pharmacophore element distance, pharmacophore element C6 / Ligand-pharmacophore element distance, pharmacophore element C7 / Ligand-pharmacophore element distance, pharmacophore element CA1 / Ligand-pharmacophore element distance, pharmacophore element CA2 / Ligand-pharmacophore element distance, pharmacophore element CA3 / Ligand-pharmacophore element distance, pharmacophore element CA4 / Ligand-pharmacophore element distance, pharmacophore element CA5 / Ligand-pharmacophore element distance, pharmacophore element CA6: Table A4-1; for Ligand-pharmacophore element distance, pharmacophore element H1 / Ligand-pharmacophore element distance, pharmacophore element H2 / Ligand-pharmacophore element distance, pharmacophore element H3 / Ligand-pharmacophore element distance, pharmacophore element H4 / Ligand-pharmacophore element distance, pharmacophore element N1 / Ligand-pharmacophore element distance, pharmacophore element N2 / Ligand-pharmacophore element distance, pharmacophore element O1 / Ligand-pharmacophore element distance, pharmacophore element O2 / Ligand-pharmacophore element distance, pharmacophore element O3 / Ligand-pharmacophore element distance, pharmacophore element O4: Table A4-2; for d(CA1,N1) / d(CA1,O1) / d(CA1,O2) / d(H4,O1) / d(H4,O2) / d(O1,O2): Table A5-1 pharmacophore: distance between elements, S2/S1 region; for d(N2,C2) / d(N2,CA2) / d(O2,H3) / d(O2,N2): Table A5-2 pharmacophore distance, S3/S4 region; for a(CA1, O1, O2) / a(O1, O2, H4) / A(N1, CA1, O1) a): Table A6-1 pharmacophore angle; for A(N1, CA1, O1) a): all compounds with protonatable center N1 except Methyl-amino-pyridine; for a(O1, O2, H3) / a(O1, O2, N2) / a(O2, N2, C2) / a(O2, N2, CA2): Table A6-2 pharmacophore angle; for Pharmacophore torsion angle a(H4, O1, O2, H3) / Pharmacophore torsion angle a(H4, O1, O2, N2) / Pharmacophore torsion angle a(N1, CA1, O2, H4) / Pharmacophore torsion angle a(O1, H4, O2, CA1) / Pharmacophore torsion angle a(O1, O2, N2, C2): Table A7-1; for Pharmacophore torsion angle a(H4, O1, O2, H3) / Pharmacophore torsion angle a(H4, O1, O2, N2) / Pharmacophore torsion angle a(N1, CA1, O2, H4) / Pharmacophore torsion angle a(O1, H4, O2, CA1) / Pharmacophore torsion angle a(O1, O2, N2, C2) / Pharmacophore torsion angle a(O1, O2, N2, CA2): between pharmacophore elements of the bound compound; for Pharmacophore torsion angle a(O1, O2, N2, CA2): Table A7-2; for Pharmacophore protein distance to MET_658 (first MET_658 column) / Pharmacophore protein distance to MET_658 (second MET_658 column) / Pharmacophore protein distance to GLY_528 / Pharmacophore protein distance to PHE_529 / Pharmacophore protein distance to PRO_608 / Pharmacophore protein distance to SER_611 / Pharmacophore protein distance to TRP_655: Table A8-6, nearest protein atom in cell to the left; for Pharmacophore protein distance to MET_658 (first MET_658 column): 6th residue column; for Pharmacophore protein distance to MET_658 (second MET_658 column): 9th residue column; for Pharmacophore protein distance to TRP_655: pharmacophore elements C6, CA3, O3, H1
Text: This example illustrates the preparation of recombinant MASP-2 protein, based on UniProt O00187, human mannan-binding lectin serine protease 2. Expression constructs for human MASP-2 CCP2-SP and CCP2-SP-6HIS were generated for recombinant expression in E. coli cells.
Typically, crystallization hits were obtained by screening against […] 96-well crystallization reagent kits (GRAS6, GRAS2, Hampton Research; MORPHEUS, Molecular Dimensions; Wizard 1&2 Cryo, Rigaku Reagents) and crystal growth was inspected by optical microscopy. Crystals were used directly or further optimized for X-ray diffraction. Crystals were captured with cryogenic loops and dipped into liquid nitrogen directly or cryoprotected with a 20% glycerol in crystallization formulation before flash-cooling in liquid nitrogen.
Thereafter crystals are transferred once or twice for soaking within the crystallization solution containing the MASP-2 inhibitor.
Crystals were diffracted with synchrotron X-rays of […] and X-ray diffraction datasets were collected at beamlines SSRL BL9-2, BL14-1, BL12-2 as well as ALS sector 5 using Dectris Pilatus and Eiger detectors. Structures were determined by molecular replacement using portions of the structure 1Q3X as search models and partially refined with Buster 2.10.2 or Refmac 5.8. […] When multiple ligand poses were observed, for instance arising from multiple molecules in the asymmetric unit or refined dual poses within the same molecule, only one pose was selected and analyzed.
LigPlot+ calls these ‘nonbonded contacts’ or ‘hydrophobic contacts’. Despite the name, there are atom pairings that include possible H-bonds. Thus, in some instances, the Table A2 also contains H-bond interactions.

Chain of MASP-2 CCP2-SP (O00187 445-686): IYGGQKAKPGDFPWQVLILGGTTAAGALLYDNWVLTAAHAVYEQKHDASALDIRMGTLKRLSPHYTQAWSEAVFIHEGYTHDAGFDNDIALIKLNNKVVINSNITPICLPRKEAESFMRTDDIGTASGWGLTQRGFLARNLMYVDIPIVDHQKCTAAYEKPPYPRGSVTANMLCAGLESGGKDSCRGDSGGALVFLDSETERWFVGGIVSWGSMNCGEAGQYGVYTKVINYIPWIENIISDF
Chain of MASP-2 CCP2-SP (O00187 364-432 partner): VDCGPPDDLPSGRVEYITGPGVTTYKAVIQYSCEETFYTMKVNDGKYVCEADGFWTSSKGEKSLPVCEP

C[C@H](NC(=O)[C@H](N)CCCc1ccccc1)C(=O)NCc1ccc(C(=N)N)cc1.Cl.Cl [1042_1]
Ligand-pharmacophore element distance, pharmacophore element C2: 1.81 | Ligand-pharmacophore element distance, pharmacophore element C3: 0 | Ligand-pharmacophore element distance, pharmacophore element C4: 0 | Ligand-pharmacophore element distance, pharmacophore element C5: 0 | Ligand-pharmacophore element distance, pharmacophore element C6: 0 | Ligand-pharmacophore element distance, pharmacophore element C7: 0 | Ligand-pharmacophore element distance, pharmacophore element CA1: 0.87 | Ligand-pharmacophore element distance, pharmacophore element CA2: 0.48 | Ligand-pharmacophore element distance, pharmacophore element CA3: 0 | Ligand-pharmacophore element distance, pharmacophore element CA4: 0 | Ligand-pharmacophore element distance, pharmacophore element CA5: 0 | Ligand-pharmacophore element distance, pharmacophore element CA6: 0 | Ligand-pharmacophore element distance, pharmacophore element H1: 0 | Ligand-pharmacophore element distance, pharmacophore element H2: 0 | Ligand-pharmacophore element distance, pharmacophore element H3: 5.4 | Ligand-pharmacophore element distance, pharmacophore element H4: 3.08 | Ligand-pharmacophore element distance, pharmacophore element N1: 1.3 | Ligand-pharmacophore element distance, pharmacophore element N2: 0.56 | Ligand-pharmacophore element distance, pharmacophore element O1: 2.71 | Ligand-pharmacophore element distance, pharmacophore element O2: 0.67 | Ligand-pharmacophore element distance, pharmacophore element O3: 0 | Ligand-pharmacophore element distance, pharmacophore element O4: 0 | d(CA1,N1): 3.58 | d(CA1,O1): 3.98 | d(CA1,O2): 4.13 | d(H4,O1): 3.35 | d(H4,O2): 3.67 | d(O1,O2): 3.40 | d(N2,C2): 3.42 | d(N2,CA2): 6.20 | d(O2,H3): 5.43 | d(O2,N2): 2.64 | a(CA1, O1, O2): 117.21 | a(O1, O2, H4): 122.15 | A(N1, CA1, O1) a): 158.11 | a(O1, O2, H3): 149.96 | a(O1, O2, N2): 170.80 | a(O2, N2, C2): 140.47 | a(O2, N2, CA2): 155.50 | Pharmacophore torsion angle a(H4, O1, O2, H3): −19.99 | Pharmacophore torsion angle a(H4, O1, O2, N2): 68.67 | Pharmacophore torsion angle a(N1, CA1, O2, H4): 9.10 | Pharmacophore torsion angle a(O1, H4, O2, CA1): −160.50 | Pharmacophore torsion angle a(O1, O2, N2, C2): 115.48 | Pharmacophore torsion angle a(O1, O2, N2, CA2): 136.01 | Pharmacophore protein distance to MET_658 (first MET_658 column): 2.06 | Pharmacophore protein distance to MET_658 (second MET_658 column): 3.40 | Pharmacophore protein distance to GLY_528: 4.67 | Pharmacophore protein distance to PHE_529: 3.84 | Pharmacophore protein distance to PRO_608: 3.46 | Pharmacophore protein distance to SER_611: 2.14 | Pharmacophore protein distance to TRP_655: 3.28

C[C@H](NC(=O)[C@H](N)CCCc1ccccc1)C(=O)NCc1ccc(C(=N)N)cc1.Cl.Cl [1042_2]
Ligand-pharmacophore element distance, pharmacophore element C2: 1.33 | Ligand-pharmacophore element distance, pharmacophore element C3: 0 | Ligand-pharmacophore element distance, pharmacophore element C4: 0 | Ligand-pharmacophore element distance, pharmacophore element C5: 0 | Ligand-pharmacophore element distance, pharmacophore element C6: 0 | Ligand-pharmacophore element distance, pharmacophore element C7: 0 | Ligand-pharmacophore element distance, pharmacophore element CA1: 0.5 | Ligand-pharmacophore element distance, pharmacophore element CA2: 0.72 | Ligand-pharmacophore element distance, pharmacophore element CA3: 0 | Ligand-pharmacophore element distance, pharmacophore element CA4: 0 | Ligand-pharmacophore element distance, pharmacophore element CA5: 0 | Ligand-pharmacophore element distance, pharmacophore element CA6: 0 | Ligand-pharmacophore element distance, pharmacophore element H1: 0 | Ligand-pharmacophore element distance, pharmacophore element H2: 0 | Ligand-pharmacophore element distance, pharmacophore element H3: 5.3 | Ligand-pharmacophore element distance, pharmacophore element H4: 3.52 | Ligand-pharmacophore element distance, pharmacophore element N1: 1.61 | Ligand-pharmacophore element distance, pharmacophore element N2: 1.72 | Ligand-pharmacophore element distance, pharmacophore element O1: 3.1 | Ligand-pharmacophore element distance, pharmacophore element O2: 0.75 | Ligand-pharmacophore element distance, pharmacophore element O3: 0 | Ligand-pharmacophore element distance, pharmacophore element O4: 0 | d(CA1,N1): 3.61 | d(CA1,O1): 4.47 | d(CA1,O2): 4.74 | d(H4,O1): 4.02 | d(H4,O2): 4.01 | d(O1,O2): 3.46 | d(N2,C2): 4.38 | d(N2,CA2): 7.44 | d(O2,H3): 5.89 | d(O2,N2): 2.86 | a(CA1, O1, O2): 116.12 | a(O1, O2, H4): 128.91 | A(N1, CA1, O1) a): 164.17 | a(O1, O2, H3): 152.56 | a(O1, O2, N2): 148.96 | a(O2, N2, C2): 139.99 | a(O2, N2, CA2): 158.67 | Pharmacophore torsion angle a(H4, O1, O2, H3): −9.33 | Pharmacophore torsion angle a(H4, O1, O2, N2): 44.33 | Pharmacophore torsion angle a(N1, CA1, O2, H4): 69.40 | Pharmacophore torsion angle a(O1, H4, O2, CA1): 68.80 | Pharmacophore torsion angle a(O1, O2, N2, C2): 151.54 | Pharmacophore torsion angle a(O1, O2, N2, CA2): 159.77 | Pharmacophore protein distance to MET_658 (first MET_658 column): 1.07 | Pharmacophore protein distance to MET_658 (second MET_658 column): 4.17 | Pharmacophore protein distance to GLY_528: 4.01 | Pharmacophore protein distance to PHE_529: 3.09 | Pharmacophore protein distance to PRO_608: 3.74 | Pharmacophore protein distance to SER_611: 2.54 | Pharmacophore protein distance to TRP_655: 3.27
